These molecules were tested against T1, LPA1R (Homo sapiens, UniProt Q92633) (assay: LPA1R Ca2+ flux functional assay (antagonist mode, FLIPR)). Conditions: inhibition of LPA-stimulated Ca2+ flux, LPA at EC80, LPA1R expressing cells (Millipore); read-out: LPA1 R Antagonist Activity.
T1 construct: host or cells: LPA1R expressing cells (Millipore, GPCR Profiler)
Format: cell-based
Protocol: Inhibition of LPA-stimulated Ca^2+ flux was used to assess compound potency using FLIPR technology in a 96 well plate format. The assay buffer used was a modified Hanks Balanced Salt Solution (HBSS) where HBSS was supplemented to contain 20 mM HEPES and 2.5 mM Probenecid at pH7.4 (Millipore, GPCR Profiler®). LPA1R expressing cells (Millipore) were plated and prepared 24 hours prior to assay of test articles. Ca^2+ ion flux was assessed from fluorescence of a Fluo-based No Wash Ca^2+ dye. Antagonist data are generated from plates with LPA concentrations sufficient to generate 80% efficacy [EC80]. Percentage inhibition was calculated from a reduction of efficacy according to concentration of compounds of Formula I-VI. For dose responses the inhibition data was used to calculate compound IC50. The agonist assay was conducted on a FLIPR^TETRA instrument where the test compound(s), vehicle controls, and reference agonist were added to the assay plate after a fluorescence baseline was established. The agonist assay was a total of 180 seconds and was used to assess each compound's ability to activate each GPCR assayed. Upon completion of the agonist assay, the assay plate was removed from the FLIPR^TETRA and incubated at 25° C. for seven (7) minutes. After the incubation period, the assay plate was placed back in the FLIPR^TETRA and the antagonist assay was initiated. Using EC80 potency values determined during the agonist assay, all pre-incubated sample compound wells were challenged with EC80 concentration of reference agonist after establishment of a fluorescence baseline. The antagonist assay was conducted using the same assay plate that was used for the agonist assay. The antagonist assay was conducted on a FLIPR^TETRA instrument where 9 vehicle controls and EC80 concentration of reference agonist were added to appropriate wells. The antagonist assay was a total of 180 seconds and was used to assess each compound's ability to inhibit each GPCR assayed. All assay plate data were subjected to appropriate baseline corrections. After baseline corrections were applied, maximum fluorescence values were exported and data processed to calculate percentage activation (relative to Emax reference agonist and vehicle control values), percentage inhibition (relative to EC80 and vehicle control values), and additional statistical values (i.e. Z′, percentage variation between replicate data values) to assess the quality of each plate. Where assay plate data were rejected, additional experiments were conducted. All dose response curves were generated using GraphPad Prism. The curves were fit by utilizing “Sigmoidal Dose Response (Variable Slope)” equation where the bottom parameter was fixed to “0.” Where appropriate, the top parameter was fixed to “100” to better predict potency values when a full curve was not generated by the concentrations assayed.

T1 sequence (Q92633 whole entry): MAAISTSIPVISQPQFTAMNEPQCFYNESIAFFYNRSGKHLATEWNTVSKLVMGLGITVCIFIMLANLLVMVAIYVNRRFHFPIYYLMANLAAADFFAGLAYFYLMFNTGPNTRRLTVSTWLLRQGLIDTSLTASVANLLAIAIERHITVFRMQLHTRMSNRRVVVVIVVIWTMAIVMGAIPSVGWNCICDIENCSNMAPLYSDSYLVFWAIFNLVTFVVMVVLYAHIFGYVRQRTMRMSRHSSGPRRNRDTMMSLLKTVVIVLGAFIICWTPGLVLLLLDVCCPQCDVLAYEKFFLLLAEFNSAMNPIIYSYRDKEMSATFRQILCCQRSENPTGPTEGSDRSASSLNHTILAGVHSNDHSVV

| Compound | IC50 [µM] |
| --- | --- |
| Cc1noc(-c2ccc(C(=O)N[C@H](C(=O)O)c3ccccc3)cc2)c1NC(=O)OC(C)c1ccccc1Cl (mixture of isomers) [Example 3, 2-(S)-(4-{4-[(R,S)-1-(2-Chloro-phenyl)-ethoxycarbonylamino]-3-methyl-isoxazol-5-yl}-benzoylamino) Phenyl Acetic Acid] | > 50 |
| Cc1noc(-c2ccc(COC(CC3CC3)C(=O)O)cc2)c1NC(=O)O[C@H](C)c1ccccc1 (mixture of isomers) [Example 44, (RS)-3-Cyclopropyl-2-{4-[3-methyl-4-((R)-1-phenyl-ethoxycarbonylamino)-isoxazol-5-yl]-benzyloxy}-propionic Acid] | < 0.3 |
| Cc1noc(-c2ccc(COC(Cc3ccc(Cl)cc3)C(=O)O)cc2)c1OC(=O)O[C@H](C)c1ccccc1 (mixture of isomers) [Example 45, (RS)-3-(4-Chloro-phenyl)-2-{4-[3-methyl-4-((R)-1-phenyl-ethoxycarbonyloxy)-isoxazol-5-yl]-benzyloxy}-propionic Acid] | < 0.3 |
| Cc1noc(-c2ccc(C(=O)NC3(C(=O)O)CC3)cc2)c1NC(=O)OC(C)c1ccccc1Cl (stereo not shown) [Example 1, 1-(4-{4-[1-(2-Chloro-phenyl)-ethoxycarbonylamino]-3-methyl-isoxazol-5-yl}-benzoylamino)-cyclopropanecarboxylic Acid] | 1 to 50 |
| Cc1noc(-c2ccc(C(=O)NC3(C(=O)O)Cc4ccccc4C3)cc2)c1NC(=O)OC(C)c1ccccc1Cl (stereo not shown) [Example 2, 2-(4-{4-[1-(2-Chloro-phenyl)-ethoxycarbonylamino]-3-methyl-isoxazol-5-yl}-benzoylamino)-indan-2-carboxylic Acid] | 1 to 50 |
| Cc1noc(-c2ccc(C(=O)NC(Cc3ccccc3)C(=O)O)cc2)c1NC(=O)OC(C)c1ccccc1Cl [Example 4, 2-(R)-(4-{4-[(R,S)-1-(2-Chloro-phenyl)-ethoxycarbonylamino]-3-methyl-isoxazol-5-yl}-benzoylamino) Phenyl Propanoic Acid] | 0.3 to 1 |
| Cc1noc(-c2ccc(C(=O)N[C@H](Cc3ccccc3)C(=O)O)cc2)c1NC(=O)O[C@H](C)c1ccccc1 [Example 5, 2(R)-[[4-[3-methyl-4-((R)-1-phenylethoxycarbonylamino)isoxazol-5-yl]benzoyl]amino]-3-phenyl-propanoic Acid] | < 0.3 |
| Cc1noc(-c2ccc(C(=O)N[C@@H](Cc3ccccc3)C(=O)O)cc2)c1NC(=O)O[C@H](C)c1ccccc1 [Example 6, 2(S)-[[4-[3-methyl-4-((R)-1-phenylethoxycarbonylamino)isoxazol-5-yl]benzoyl]amino]-3-phenyl-propanoic Acid] | > 50 |
| Cc1noc(-c2ccc(C(=O)N[C@H](CC3CC3)C(=O)O)cc2)c1NC(=O)O[C@H](C)c1ccccc1Cl [Example 17, (R)-2-(4-{4-[(R)-1-(2-chloro-phenyl)-ethoxycarbonylamino]-3-methyl-isoxazol-5-yl}-benzoylamino)-3-cyclopropyl-propionic Acid] | < 0.3 |
| Cc1noc(-c2ccc(C(=O)N[C@H](Cc3ccccc3)C(=O)O)cc2)c1NC(=O)O[C@@H](C)c1ccccc1 [Example 18, (R)-2-{4-[3-Methyl-4-((S)-1-phenyl-ethoxycarbonylamino)-isoxazol-5-yl]-benzoylamino}-3-phenyl-propionic Acid] | > 50 |
| Cc1noc(-c2ccc(C(=O)N[C@@H](Cc3ccccc3)C(=O)O)cc2)c1NC(=O)O[C@@H](C)c1ccccc1 [Example 19, (S)-2-{4-[3-Methyl-4-((S)-1-phenyl-ethoxycarbonylamino)-isoxazol-5-yl]-benzoylamino}-3-phenyl-propionic Acid] | > 50 |
| Cc1noc(-c2ccc(C(=O)N[C@H](Cc3ccc(F)cc3)C(=O)O)cc2)c1NC(=O)O[C@H](C)c1ccccc1Cl [Example 21, (R)-2-(4-{4-[(R)-1-(2-Chloro-phenyl)-ethoxycarbonylamino]-3-methyl-isoxazol-5-yl}-benzoylamino)-3-(4-fluoro-phenyl)-propionic Acid] | < 0.3 |
| Cc1noc(-c2ccc(C(=O)N[C@H](Cc3ccc(Cl)cc3)C(=O)O)cc2)c1NC(=O)O[C@H](C)c1ccccc1Cl [Example 22, (R)-3-(4-Chloro-phenyl)-2-(4-{4-[(R)-1-(2-chloro-phenyl)-ethoxycarbonylamino]-3-methyl-isoxazol-5-yl}-benzoylamino)-propionic Acid] | < 0.3 |
| Cc1noc(-c2ccc(C(=O)N[C@H](Cc3ccc(F)c(F)c3)C(=O)O)cc2)c1NC(=O)O[C@H](C)c1ccccc1Cl [Example 23, (R)-2-(4-{4-[(R)-1-(2-Chloro-phenyl)-ethoxycarbonylamino]-3-methyl-isoxazol-5-yl}-benzoylamino)-3-(3,4-difluoro-phenyl)-propionic Acid] | < 0.3 |
| Cc1noc(-c2ccc(C(=O)N[C@H](Cc3ccccc3Cl)C(=O)O)cc2)c1NC(=O)O[C@H](C)c1ccccc1Cl [Example 24, (R)-3-(2-Chloro-phenyl)-2-(4-{4-[(R)-1-(2-chloro-phenyl)-ethoxycarbonylamino]-3-methyl-isoxazol-5-yl}-benzoylamino)-propionic Acid] | < 0.3 |

Now from value to molecule:

| IC50 [µM] | Compound |
| --- | --- |
| > 50 | Cc1nn(C)c(-c2ccc(C(=O)N[C@H](Cc3ccccc3)C(=O)O)cc2)c1NC(=O)O[C@H](C)c1ccccc1 [Example 7, (R)-2-[[4-[2,5-dimethyl-4-((R)-1-phenylethoxycarbonylamino)pyrazol-3-yl]benzoyl]amino]-3-phenyl-propanoic Acid] |
| > 50 | Cc1c(NC(=O)O[C@H](C)c2ccccc2)c(-c2ccc(C(=O)N[C@H](Cc3ccccc3)C(=O)O)cc2)nn1C [Example 8, (R)-2-[[4-[1,5-dimethyl-4-((R)-1-phenylethoxycarbonylamino)pyrazol-3-yl]benzoyl]amino]-3-phenyl-propanoic Acid] |
| > 50 | Cc1nn(C)c(-c2ccc(C(=O)N[C@H](Cc3ccc(F)cc3)C(=O)O)cc2)c1NC(=O)O[C@H](C)c1ccccc1 [Example 9, (R)-2-[[4-[2,5-dimethyl-4-((R)-1-phenylethoxycarbonylamino)pyrazol-3-yl]benzoyl]amino]-3-(4-fluorophenyl)propanoic Acid] |
| > 50 | Cc1c(NC(=O)O[C@H](C)c2ccccc2)c(-c2ccc(C(=O)N[C@H](Cc3ccc(F)cc3)C(=O)O)cc2)nn1C [Example 10, (R)-2-[[4-[1,5-dimethyl-4-((R)-1-phenylethoxycarbonylamino)pyrazol-3-yl]benzoyl]amino]-3-(4-fluorophenyl)propanoic acid] |
| > 50 | Cc1nn(C)c(-c2ccc(C(=O)N[C@H](Cc3ccc(Br)cc3)C(=O)O)cc2)c1NC(=O)O[C@H](C)c1ccccc1 [Example 11, (R)-3-(4-bromophenyl)-2-[[4-[2,5-dimethyl-4-((R)-1-phenylethoxycarbonyl-amino)pyrazol-3-yl]benzoyl]amino]propanoic Acid] |
| > 50 | Cc1nn(C)c(-c2ccc(C(=O)N[C@H](Cc3ccc(Cl)cc3)C(=O)O)cc2)c1NC(=O)O[C@H](C)c1ccccc1 [Example 13, (R)-3-(4-chlorophenyl)-2-[[4-[2,5-dimethyl-4-((R)-1-phenylethoxycarbonyl-amino)pyrazol-3-yl]benzoyl]amino]propanoic Acid] |
| > 50 | Cc1c(NC(=O)O[C@H](C)c2ccccc2)c(-c2ccc(C(=O)N[C@H](Cc3ccc(Cl)cc3)C(=O)O)cc2)nn1C [Example 14, (R)-3-(4-chlorophenyl)-2-[[4-[1,5-dimethyl-4-((R)-1-phenylethoxycarbonyl-amino)pyrazol-3-yl]benzoyl]amino]propanoic Acid] |
| > 50 | Cc1nn(C)c(-c2ccc(C(=O)N[C@H](Cc3ccc(F)c(F)c3)C(=O)O)cc2)c1NC(=O)O[C@H](C)c1ccccc1 [Example 15, (R)-3-(3,4-difluorophenyl)-2-[[4-[2,5-dimethyl-4-((R)-1-phenylethoxycarbonyl-amino)pyrazol-3-yl]benzoyl]amino]propanoic Acid] |
| > 50 | Cc1c(NC(=O)O[C@H](C)c2ccccc2)c(-c2ccc(C(=O)N[C@H](Cc3ccc(F)c(F)c3)C(=O)O)cc2)nn1C [Example 16, (R)-3-(3,4-difluorophenyl)-2-[[4-[1,5-dimethyl-4-((R)-1-phenylethoxycarbonyl-amino)pyrazol-3-yl]benzoyl]amino]propanoic Acid] |
| < 0.3 | Cc1noc(-c2ccc(C(=O)N[C@H](Cc3ccc(Br)cc3)C(=O)O)cc2)c1NC(=O)O[C@H](C)c1ccccc1Cl [Example 25, (R)-3-(4-Bromo-phenyl)-2-(4-{4-[(R)-1-(2-chloro-phenyl)-ethoxycarbonylamino]-3-methyl-isoxazol-5-yl}-benzoylamino)-propionic Acid] |
